Here are results for 31 compounds from ChEMBL document CHEMBL1135057, “A combinatorial library of indinavir analogues and its in vitro and in vivo studies” (Bioorg Med Chem Lett, 2002).

Data set [1] concerns Human immunodeficiency virus 1. The data set is described as follows: Inhibition of the spread of viral infection in MT-4 human T-lymphoid cells infected by IIIb isolate. It is filed as functional. Particulars: read-out: CIC95.
In data set [2] the target is T1, Human immunodeficiency virus type 1 protease (Human immunodeficiency virus 1, UniProt Q72874). In words: In vitro inhibitory activity against mutant HIV-1 (A-44)protease.
Data set [3] has as its target T1, Human immunodeficiency virus type 1 protease. In words: In vitro inhibitory activity against wild type HIV-1 protease.
Data set [4] in a line: Tested for the pharmacokinetic data, maximum concentration (Cmax) in dog. Particulars: in vivo. It is filed as ADME, organism-based, Canis lupus familiaris.
Data set [5] in a line: Tested for the half life period in dog. It counts as ADME, organism-based, Canis lupus familiaris. Particulars: in vivo.
A short description of data set [6]: Tested for the pharmacokinetic data, area under the curve of concentration versus time in dog. It counts as ADME, organism-based, Canis lupus familiaris. The settings on record: in vivo.
A further data set is filed under the species Canis familiaris. The data set is described as follows: Tested for the pharmacokinetic data, time required to reach Cmax (Tmax) in dog. It counts as ADME, organism-based, Canis lupus familiaris. The settings on record: in vivo.
Setting [7] is: Human immunodeficiency virus 1, T-lymphoid.

Bounds are passed on as bounds.

One may read the IC50 as the concentration that inhibits the measured activity by half. Higher therefore signals a need for much substance. Take `CC(C)(C)NC(=O)[C@@H]1CN(Cc2nc3ccccc3o2)CCN1C[C@@H](O)C[C@@H](Cc1ccccc1)C(=O)N[C@@H]1c2ccccc2C[C@H]1O`: the IC95 in data set [1] (setting [7]) is 400 nM. Moreover, the IC50 in data set [2] was found to be 66 nM; in data set [3] it was 1.2 nM.
Consider `CC1=CSC2C(CN3CCN(C[C@@H](O)C[C@@H](Cc4ccccc4)C(=O)N[C@@H]4c5ccccc5C[C@H]4O)[C@H](C(=O)NC(C)(C)C)C3)N=CN12` (some centres not stated), for which the IC95 in data set [1] (setting [7]) is more than 400 nM. Further, the 50% inhibitory concentration (IC50) in data set [2] was determined as 378 nM; in data set [3] it was 6.7 nM.
On the same counts, the results for `Cn1nc(C(F)(F)F)cc1-c1ccc(CN2CCN(C[C@@H](O)C[C@@H](Cc3ccccc3)C(=O)N[C@@H]3c4ccccc4C[C@H]3O)[C@H](C(=O)NC(C)(C)C)C2)s1` are 25 nM, 0.6 nM and 0.13 nM.
On the same counts, the results for `CC(C)(C)NC(=O)[C@@H]1CN(Cc2cc3cc(F)ccc3o2)CCN1C[C@@H](O)C[C@@H](Cc1ccccc1)C(=O)N[C@@H]1c2ccccc2C[C@H]1O` are 200 nM, 46 nM and 0.94 nM.
The term Cmax denotes the peak of the concentration-time curve. For orientation: half-life means the time in which the quantity being followed falls by half. Higher therefore signals slow loss. The term AUC denotes the area under the concentration-time curve, a measure of exposure. `CC(C)(C)NC(=O)[C@@H]1CN(Cc2cccnc2)CCN1C[C@@H](O)C[C@@H](Cc1cccnc1)C(=O)N[C@@H]1c2ccccc2C[C@H]1O` returned a Cmax in data set [4] of 313 nM. In addition, the half-life in data set [5] worked out at 43.4 min. Moreover, in data set [6], the AUC worked out at 0.291 µM·h. For the same compound, the T max in the data set filed under Canis familiaris was 40 min.
Regarding `CC(C)(C)NC(=O)[C@@H]1CN(CCCC(F)(F)F)CCN1C[C@@H](O)C[C@@H](Cc1ccccc1)C(=O)N[C@@H]1c2ccccc2C[C@H]1O`, the IC95 in data set [1] (setting [7]) was more than 400 nM. Further, the IC50 in data set [2] was found to be 568 nM; in data set [3], 15.3 nM.
On the same counts, the results for `CC(C)(C)NC(=O)[C@@H]1CN(Cc2cc3ccccc3o2)CCN1C[C@@H](O)C[C@@H](Cc1ccccc1)C(=O)NC1c2ccccc2C[C@H]1O` (some centres not stated) are 50 nM, 24 nM and 0.49 nM.
With `Cn1cc(CN2CCN(C[C@@H](O)C[C@@H](Cc3ccccc3)C(=O)N[C@@H]3c4ccccc4C[C@H]3O)[C@H](C(=O)NC(C)(C)C)C2)c2ccccc21`, in data set [1] (setting [7]), the IC95 is more than 400 nM. Further, the IC50 in data set [2] came to 332 nM; in data set [3], 6.7 nM.
Take `CC(C)(C)NC(=O)[C@@H]1CN(CC2(c3ccccc3)CC2)CCN1C[C@@H](O)C[C@@H](Cc1ccccc1)C(=O)N[C@@H]1c2ccccc2C[C@H]1O`: the IC95 in data set [1] (setting [7]) is more than 400 nM. Further, the IC50 is 257 nM in data set [2] and 7.7 nM in data set [3].
`C[C@@H]1CC[C@@H](O)[C@@H]1NC(=O)[C@H](Cc1ccc(F)cc1)C[C@H](O)CN1CCN(Cc2cccnc2)C[C@H]1C(=O)NC(C)(C)C` had a Cmax in data set [4] of 378 nM. Further, in data set [5], the half-life worked out at 39.2 min. The same compound yielded an AUC in data set [6] of 0.371 µM·h. Also, the T max in the data set listed under Canis familiaris was 40 min.
As for `Cn1cc(CN2CCN(C[C@@H](O)C[C@@H](Cc3ccccc3)C(=O)N[C@@H]3c4ccccc4C[C@H]3O)[C@H](C(=O)NC(C)(C)C)C2)ccc1=O`, the IC95 in data set [1] (setting [7]) worked out at 400 nM. The values for the IC50 in data set [2] and in data set [3] were 131 nM and 2.2 nM, respectively.
As for `CC(C)(C)NC(=O)[C@@H]1CN(Cc2cccnc2)CCN1C[C@@H](O)C[C@@H](Cc1ccc(F)cc1)C(=O)N[C@@H]1c2cccc(F)c2C[C@H]1O`, in data set [4], the peak level (Cmax) was 195 nM. This compound displayed a half-life in data set [5] of 48.2 min. This compound also yielded an AUC in data set [6] of 0.197 µM·h. This compound also had a T max in the data set listed under Canis familiaris of 40 min.
As to `CN(C)c1ccc2ccc(S(=O)(=O)N3CCN(C[C@@H](O)C[C@@H](Cc4ccccc4)C(=O)N[C@@H]4c5ccccc5C[C@H]4O)[C@H](C(=O)NC(C)(C)C)C3)cc2n1`, the IC95 in data set [1] (setting [7]) turned out to be 50 nM. Moreover, the results for the IC50 in data set [2] and in data set [3] were 2.2 nM and 0.22 nM, respectively.
On the same counts, the results for `CC(C)(C)NC(=O)[C@@H]1CN(Cc2ncc(-c3ccccc3)s2)CCN1C[C@@H](O)C[C@@H](Cc1ccccc1)C(=O)N[C@@H]1c2ccccc2C[C@H]1O` are 50 nM, 2 nM and 0.26 nM.
On the same counts, the results for `CC(C)(C)NC(=O)[C@@H]1CN(Cc2noc3ccccc23)CCN1C[C@@H](O)C[C@@H](Cc1ccccc1)C(=O)NC1c2ccccc2C[C@H]1O` (some centres not stated) are 400 nM, 71.5 nM and 1.17 nM.
With `CC(C)(C)NC(=O)[C@@H]1CN(Cc2nc3ccccc3s2)CCN1C[C@@H](O)C[C@@H](Cc1ccccc1)C(=O)N[C@@H]1c2ccccc2C[C@H]1O`, the IC95 in data set [1] (setting [7]) worked out at 400 nM. Further, the IC50 in data set [2] was found to be 71.7 nM; in data set [3] it was 1.2 nM.
As to `CC(C)(C)NC(=O)[C@@H]1CN(Cc2cccc(C(C)(C)NC(=O)OC(C)(C)C)c2)CCN1C[C@@H](O)C[C@@H](Cc1ccccc1)C(=O)N[C@@H]1c2ccccc2C[C@H]1O`, the IC95 in data set [1] (setting [7]) was more than 400 nM. Also, the IC50 in data set [2] was 392 nM; in data set [3], 28 nM.
With `CC(C)(C)NC(=O)[C@@H]1CN(Cc2cccnc2)CCN1C[C@@H](O)C[C@@H](CC1CCCCC1)C(=O)NC1c2cccc(F)c2C[C@H]1O` (single isomer, unassigned), the peak level in data set [4] (Cmax) was 148 nM. Besides, the half-life in data set [5] came to 48.2 min. In data set [6], the AUC amounted to 0.236 µM·h. Further, the T max in the data set listed under Canis familiaris came out at 40 min.
In data set [4], `C[C@@H]1CC[C@@H](O)C1NC(=O)[C@H](Cc1cccnc1)C[C@H](O)CN1CCN(Cc2cccnc2)C[C@H]1C(=O)NC(C)(C)C` (single isomer, unassigned) showed a Cmax of 524 nM. The same compound came in with a half-life in data set [5] of 23.4 min. The same compound had an AUC in data set [6] of 0.464 µM·h. The same compound showed a T max in the data set listed under Canis familiaris of 40 min.
On the same counts, the results for `CC(C)(C)NC(=O)[C@@H]1CN(Cc2cccnc2)CCN1C[C@@H](O)C[C@@H](Cc1ccc(F)cc1)C(=O)NC1c2cccc(Cl)c2C[C@H]1O` (single isomer, unassigned) are 180 nM, 50.5 min, 0.181 µM·h and 40 min.
Consider `CC(C)(C)NC(=O)[C@@H]1CN(Cc2cccnc2)CCN1C[C@@H](O)C[C@@H](Cc1cccnc1)C(=O)NC1c2cccc(Cl)c2C[C@H]1O` (single isomer, unassigned), for which the highest level in data set [4] (Cmax) was 220 nM. This compound showed a half-life in data set [5] of 23.9 min. The same compound yielded an AUC in data set [6] of 0.227 µM·h. In addition, the T max in the data set listed under Canis familiaris was 40 min.
On the same counts, the results for `C[C@@H]1CC[C@@H](O)C1NC(=O)[C@H](Cc1ccccc1)C[C@H](O)CN1CCN(Cc2cccnc2)C[C@H]1C(=O)NC(C)(C)C` (single isomer, unassigned) are 554 nM, 31.5 min, 0.512 µM·h and 40 min.
Consider `CC(C)(C)NC(=O)[C@@H]1CN(Cc2cccnc2)CCN1C[C@@H](O)C[C@@H](Cc1cccnc1)C(=O)NC1c2cccc(F)c2C[C@H]1O` (single isomer, unassigned), for which the Cmax in data set [4] is 268 nM. In data set [5], this compound gave a half-life of 28.7 min. This compound also displayed an AUC in data set [6] of 0.245 µM·h. In addition, the T max in the data set listed under Canis familiaris came to 40 min.
`CC(C)(C)NC(=O)[C@@H]1CN(Cc2cccnc2)CCN1C[C@@H](O)C[C@@H](Cc1ccc(F)cc1)C(=O)NC1c2ccccc2C[C@H]1O` (single isomer, unassigned) gave a Cmax in data set [4] of 264 nM. Moreover, the half-life in data set [5] is 44.6 min. The same compound came in with an AUC in data set [6] of 0.258 µM·h. The compound further showed a T max in the data set filed under Canis familiaris of 40 min.
On the same counts, the results for `CC(C)(C)NC(=O)[C@@H]1CN(Cc2cccnc2)CCN1C[C@@H](O)C[C@@H](Cc1ccccc1)C(=O)NC1c2cccc(F)c2C[C@H]1O` (single isomer, unassigned) are 250 nM, 44.5 min, 0.258 µM·h and 40 min.
Compound `CC(C)(C)NC(=O)[C@@H]1CN(Cc2cccnc2)CCN1C[C@@H](O)C[C@@H](CC1CC1)C(=O)NC1c2ccccc2C[C@H]1O` (single isomer, unassigned) came in with a Cmax in data set [4] of 651 nM. This compound came in with a half-life in data set [5] of 21.2 min. The same compound registered an AUC in data set [6] of 0.566 µM·h. Moreover, the T max in the data set listed under Canis familiaris was 40 min.
In the case of `CC(C)(C)NC(=O)[C@@H]1CN(Cc2cccnc2)CCN1C[C@@H](O)C[C@@H](CC1CCCCC1)C(=O)NC1c2ccccc2C[C@H]1O` (single isomer, unassigned), in data set [4], the Cmax amounted to 232 nM. Also, the half-life in data set [5] worked out at 54.4 min. Moreover, the AUC in data set [6] turned out to be 0.26 µM·h. In the data set listed under Canis familiaris, this compound came in with a T max of 40 min.
The matching figures for `CC(C)(C)NC(=O)[C@@H]1CN(Cc2cccnc2)CCN1C[C@@H](O)C[C@@H](CC1CC1)C(=O)NC1c2cccc(Cl)c2C[C@H]1O` (single isomer, unassigned): 626 nM, 23 min, 0.566 µM·h and 40 min.
Turning to `CC(C)(C)NC(=O)[C@@H]1CN(Cc2cccnc2)CCN1C[C@@H](O)C[C@@H](CC1CC1)C(=O)NC1c2cccc(F)c2C[C@H]1O` (single isomer, unassigned), in data set [4], the concentration peaked (Cmax) at 610 nM. In addition, the half-life in data set [5] was found to be 20.2 min. In data set [6], this compound gave an AUC of 0.525 µM·h. Besides, the T max in the data set listed under Canis familiaris is 40 min.
The matching figures for `CC(C)(C)NC(=O)[C@@H]1CN(Cc2cccnc2)CCN1C[C@@H](O)C[C@@H](Cc1ccccc1)C(=O)NC1c2cccc(Cl)c2C[C@H]1O` (single isomer, unassigned): 250 nM, 45.8 min, 0.256 µM·h and 40 min.
For the compound `CC(C)(C)NC(=O)[C@@H]1CN(Cc2cccnc2)CCN1C[C@@H](O)C[C@@H](Cc1ccccc1)C(=O)NC1c2ccccc2C[C@H]1O.O` (single isomer, unassigned) [INDINAVIR], in data set [4], the peak level (Cmax) was 358 nM. Besides, the half-life in data set [5] stood at 27.1 min. This compound gave an area under the curve (AUC) in data set [6] of 0.307 µM·h. The IC95 turned out to be 50 nM in data set [1] (setting [7]) and 50.5 nM in data set [1]. The compound further gave a T max in the data set listed under Canis familiaris of 40 min.
